A short description of data set [1]: Solubility of the compounds. The data set is classed as physicochemical.
The subject of data set [2] is C. albicans ATCC MYA-2876(S) (strain C). Put plainly: MIC determination, in vitro antifungal assay (CLSI M27-A3). The data set is classed as cell-based, Candida albicans. The note with it: Candida albicans, 48 h, MIC-0, 48 h at 35° C., read-out: MIC. The method, boiled down:
(§1)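 A single colony was grown overnight in YPD broth at 35° C with shaking, set to OD600 0.12 in water, and diluted to 2-4×10^3 CFU/mL in MOPS-buffered RPMI 1640 (pH 7.0). MICs were then determined by the CLSI M27-A3 method at 35° C, keeping DMSO under 1.25%.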

Data set [3] deals with C. albicans ATCC MYA-1003(R) (strain G). The data set is described as above. The data set is classed as cell-based, Candida albicans. The note with it: Candida albicans, 48 h, MIC-0, 48 h at 35° C., read-out: MIC. In short, it runs like this: as §1
The test system of data set [4] is C. albicans ATCC MYA-2310(S) (strain E). The data set is described as above. Type of data set: cell-based, Candida albicans. As to conditions: Candida albicans, 48 h, MIC-0, 48 h at 35° C., read-out: MIC. The method, boiled down:
(§2)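 MICs followed broth microdilution per CLSI M27-A3 with minor modifications, in RPMI 1640 buffered to pH 7.0 with MOPS at 35° C. Inoculum was 2-4×10^3 CFU/mL from overnight YPD cultures, with DMSO kept <1.25%. MIC was the lowest concentration giving complete inhibition (MIC-0).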

Data set [5] has as its system C. albicans ATCC 64124(R) (strain B). The description is as above. Type of data set: cell-based, Candida albicans. The note with it: strain B, MIC-0, 48 h at 35° C. In short, it runs like this: as §2
Data set [6] concerns C. albicans ATCC 90819(R) (strain D). The description is as above. As to conditions: Candida albicans, ATCC90819, 48 h, MIC-0, 48 h at 35° C., read-out: MIC. The data set is classed as cell-based, Candida albicans. The method, boiled down:
as §2

Data set [7] deals with C. albicans ATCC MYA-1237(R) (strain F). The description is as above. The data set is classed as cell-based, Candida albicans. As to conditions: Candida albicans, 48 h, MIC-0, 48 h at 35° C., read-out: MIC. The method, boiled down: as §2
Data set [8] has as its system Candida krusei ATCC 6258 (strain I). The data set is described as above. Type of data set: cell-based. As to conditions: Pichia kudriavzevii, ATCC6258, 48 h, MIC-0, 48 h at 35° C., read-out: MIC. In short, it runs like this:
as §1

For data set [9], the system named is Candida glabrata ATCC 2001 (strain H). The description is as above. Type of data set: cell-based. The note with it: Nakaseomyces glabratus, ATCC2001, 48 h, MIC-0, 48 h at 35° C., read-out: MIC. The method, boiled down:
as §1

Data set [10] concerns various yeast strains and filamentous fungi (strains A-M). Put plainly: Antifungal activity over the whole panel (summary of MIC data). The data set is classed as cell-based, Candida and Aspergillus strains. The note with it: for antifungal activity (in words): over the fungal strains tested, based on MIC data of Table 1; for MIC: against all fungal strains tested, with named exceptions, read-out: antifungal activity class based on MIC values. How it is done:
The activity of N,N′-diaryl-bishydrazones 7-22 was tested against a panel of seven strains of C. albicans: ATCC 10231(R) (A), ATCC 64124(R) (B), ATCC MYA-2876(S) (C), ATCC 90819(R) (D), ATCC MYA-2310(S) (E), ATCC MYA-1237(R) (F), and ATCC MYA-1003(R) (G). The activity of these bishydrazones 7-22 was also explored against a panel of three non-albicans Candida strains: C. glabrata ATCC 2001 (H), C. krusei ATCC 6258 (I), and C. parapsilosis ATCC 22019 (J). Finally, the activity of these bishydrazones 7-22 was explored against three Aspergillus strains: A. flavus ATCC MYA-3631 (K), A. nidulans ATCC 38163 (L), and A. terreus ATCC MYA-3633 (M).
The MIC values of compounds 7a-24c against yeast cells (strains A-J) were determined in 96-well plates as described in the CLSI document M27-A3 with minor modifications. A single colony of freshly prepared yeast cells was used to inoculate 5 mL of yeast extract peptone dextrose (YPD) broth prior to incubation overnight with shaking at 200 rpm at 35° C. From the actively growing yeast culture, 100 μL were then transferred to 900 μL of sterile ddH2O and re-adjusted to achieve OD600 of 0.12 (˜1×10^6 CFU/mL). The cell suspension was further diluted to achieve 2-4×10^3 CFU/mL in RPMI 1640 medium. […] The final concentration of DMSO was ensured to be <1.25% in all experiments. The MIC values for compounds 7a-24c and CAS were defined as the minimum drug concentration that yielded complete inhibition (also known as MIC-0).
Similarly, the MIC values of compounds 7a-24c, as well as that of the two control drugs against filamentous fungi (strains K-M) were determined as previously described in CLSI document M38-A2. Spores were harvested from sporulating cultures growing on potato dextrose agar (PDA) by filtration through sterile glass wool and enumerated by using a hemocytometer to obtain the desired inoculum size. […] Spore suspensions were added to the wells to afford a final concentration of 5×10^5 CFU/mL. The plates were incubated at 35° C. for 48 h. The MIC values of compounds 7a-24c and CAS against filamentous fungi were based on the complete inhibition of growth when compared to the growth control (MIC-0). […] Each test was performed in triplicate.

Data set [11] deals with Aspergillus terreus ATCC MYA-3633 (strain M). Put plainly: MIC determination against filamentous fungi (CLSI M38-A2). The data set is classed as cell-based. As to conditions: Aspergillus terreus, 48 h, MIC-0, 48 h at 35° C., read-out: MIC. The method, boiled down:
(§3)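 Broth microdilution followed CLSI M38-A2 in RPMI 1640 buffered to pH 7.0 with 0.165 M MOPS. Spores were harvested from PDA cultures, counted by hemocytometer and added at 5×10^5 CFU/mL final, then incubated 48 h at 35° C. MIC was taken as complete growth inhibition versus growth control (MIC-0), run in triplicate.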

The test system of data set [12] is Aspergillus nidulans ATCC 38163 (strain L). Described as above. Type of data set: cell-based. As to conditions: Aspergillus nidulans, ATCC38163, 48 h, MIC-0, 48 h at 35° C., read-out: MIC. In short, it runs like this: as §3
For data set [13], the system named is Aspergillus flavus ATCC MYA-3631 (strain K). Described as above. As to conditions: Aspergillus flavus, 48 h, MIC-0, 48 h at 35° C., read-out: MIC. The data set is classed as cell-based. The method, boiled down:
as §3

Data set [14] relates to Candida albicans ATCC 10231(R) (strain A). Put plainly: MIC determination, in vitro antifungal assay (CLSI M27-A3). As to conditions: MIC-0 (no visible growth), 48 h at 35° C. Type of data set: cell-based. The method, boiled down: as §2
In data set [15] the test system is Candida parapsilosis ATCC 22019 (strain J). Described as above. Type of data set: cell-based. The note with it: Lodderomyces parapsilosis, ATCC22019, 48 h, strain J; MIC-0; 48 h at 35° C.; read-out: MIC. In short, it runs like this: as §2
Where [16] appears, read: Candida albicans, ATCC64124, 48 h, read-out: MIC.
The mark [17] stands for this setting: Candida albicans, ATCC10231, 48 h, read-out: MIC.

Converted amounts (≈) assume the structure as drawn. “Also recorded” adds a separate entry of the source. Where two headings read alike, the source gives them in different places.

For `O=[N+]([O-])c1ccccc1N/N=C/c1ccc(-c2cccc(/C=N/Nc3ccccc3[N+](=O)[O-])c2)cc1` [Compound 8a], the “solubility (in words)” value in [1] is on record as “limited solubility; also recorded: insoluble”.
Consider `O=[N+]([O-])c1ccccc1N/N=C/c1ccc(-c2ccc(/C=N/Nc3ccccc3[N+](=O)[O-])cc2)cc1` [Compound 8b], for which, in [1], the “solubility (in words)” value is recorded as “limited solubility; also recorded: insoluble”.
Turning to `COc1ccccc1N/N=C/c1ccc(-c2cccc(/C=N/Nc3ccccc3OC)c2)cc1` [Compound 9a], the “solubility (in words)” value in [1] was “limited solubility; also recorded: insoluble”.
Turning to `COc1ccccc1N/N=C/c1ccc(-c2ccc(/C=N/Nc3ccccc3OC)cc2)cc1` [Compound 9b], in data set [1], the “solubility (in words)” value is reported as “limited solubility; also recorded: insoluble”.
On the same count and under the same terms, to `COc1cccc(N/N=C/c2ccc(-c3cccc(/C=N/Nc4cccc(OC)c4)c3)cc2)c1` [Compound 11a] belongs “limited solubility; also recorded: insoluble”.
Turning to `COc1cccc(N/N=C/c2ccc(-c3ccc(/C=N/Nc4cccc(OC)c4)cc3)cc2)c1` [Compound 11b], in data set [1], the “solubility (in words)” value is recorded as “limited solubility; also recorded: insoluble”.
`FC(F)(F)c1ccc(N/N=C/c2ccc(-c3cccc(/C=N/Nc4ccc(C(F)(F)F)cc4)c3)cc2)cc1` [Compound 14a]: the “solubility (in words)” value in [1] was “limited solubility; also recorded: insoluble”.
The term MIC denotes the smallest concentration in the dilution series that meets the test's criterion for growth inhibition. In the case of `Clc1ccc(N/N=C/c2ccc(-c3ccc(/C=N/Nc4ccc(Cl)cc4)cc3)cc2)cc1` [Compound 18b], the MIC in data set [2], in data set [3], in [4], in [5] (setting [16]), in [6] and in data set [7] was over 31.3 µg/mL in each case. In addition, the minimum inhibitory concentration (MIC) was 31.3 µg/mL (≈ 68.1 µM) in [8]; over 31.3 µg/mL in [9]; 31.3 µg/mL (≈ 68.1 µM) in data set [11]; over 31.3 µg/mL in data set [12]; over 31.3 µg/mL in [13]; over 31.3 µg/mL in [14] (setting [17]). For the same molecule, the MIC in [15] was 31.3 µg/mL (≈ 68.1 µM). Moreover, the “antifungal activity (in words)” value in [10] is “inactive”.
Consider `Brc1ccc(N/N=C/c2ccc(-c3ccc(/C=N/Nc4ccc(Br)cc4)cc3)cc2)cc1` [Compound 19b], for which the minimum inhibitory concentration (MIC) in data set [2], in data set [3], in data set [4], in data set [5] (setting [16]), in data set [6] and in data set [7] was over 31.3 µg/mL throughout. The minimal inhibitory concentration (MIC) in data set [8], in [9], in [11], in [12], in data set [13] and in data set [14] (setting [17]) was over 31.3 µg/mL in each case. Also, the minimum inhibitory concentration (MIC) in data set [15] amounted to 31.3 µg/mL (≈ 57.1 µM). Besides, the “antifungal activity (in words)” value in data set [10] was “inactive”.
For `Fc1ccc(N/N=C/c2ccc(-c3ccc(/C=N/Nc4ccc(F)cc4F)cc3)cc2)c(F)c1` [Compound 20b], the minimal inhibitory concentration (MIC) is over 31.3 µg/mL in [2]; over 31.3 µg/mL in [3]; over 31.3 µg/mL in [4]; over 31.3 µg/mL in data set [5] (setting [16]); 31.3 µg/mL (≈ 67.7 µM) in data set [6]; over 31.3 µg/mL in data set [7]. For the same molecule, the minimum inhibitory concentration (MIC) in data set [8] was over 31.3 µg/mL; in [9], over 31.3 µg/mL; in data set [10], at least 31.3 µg/mL; in data set [11], over 31.3 µg/mL; in data set [12], over 31.3 µg/mL; in [13], over 31.3 µg/mL. Moreover, the MIC in data set [14] (setting [17]) was 7.8 µg/mL (≈ 16.9 µM); in [14] it was 7.8 µg/mL (≈ 16.9 µM); in [15], over 31.3 µg/mL.
Turning to `Fc1cc(F)cc(N/N=C/c2ccc(-c3cccc(/C=N/Nc4cc(F)cc(F)c4)c3)cc2)c1` [Compound 22a], the minimal inhibitory concentration (MIC) was 31.3 µg/mL (≈ 67.7 µM) in data set [2]; 31.3 µg/mL (≈ 67.7 µM) in [3]; over 31.3 µg/mL in data set [4]; 15.6 µg/mL (≈ 33.7 µM) in [5] (setting [16]); 15.6 µg/mL (≈ 33.7 µM) in data set [5]; over 31.3 µg/mL in data set [6]. For the same molecule, the minimum inhibitory concentration (MIC) is 31.3 µg/mL (≈ 67.7 µM) in data set [7]; over 31.3 µg/mL in data set [8]; over 31.3 µg/mL in data set [9]; over 31.3 µg/mL in [11]; over 31.3 µg/mL in data set [12]; over 31.3 µg/mL in [13]. Further, the MIC in [14] (setting [17]) is 3.9 µg/mL (≈ 8.43 µM); in [14] it was 3.9 µg/mL (≈ 8.43 µM); in [15], over 31.3 µg/mL. In addition, the “antifungal activity (in words)” value in [10] is reported as “no activity”.
For the molecule `Fc1cc(F)cc(N/N=C/c2ccc(-c3ccc(/C=N/Nc4cc(F)cc(F)c4)cc3)cc2)c1` [Compound 22b], the MIC in data set [2], in [3], in data set [4], in data set [5] (setting [16]), in [6] and in [7] was over 31.3 µg/mL in each case. Moreover, the minimal inhibitory concentration (MIC) in data set [8] is over 31.3 µg/mL; in data set [9] it was over 31.3 µg/mL; in data set [10] it was at least 31.3 µg/mL; in data set [11] it was over 31.3 µg/mL; in [12], over 31.3 µg/mL; in data set [13], over 31.3 µg/mL. Further, the figures for the MIC in [14] (setting [17]), in [14] and in [15] were 15.6 µg/mL (≈ 33.7 µM), 15.6 µg/mL (≈ 33.7 µM) and over 31.3 µg/mL, respectively. In [10], the “antifungal activity (in words)” value is listed as “no activity”.
